Experimental data taken from ChEMBL document CHEMBL5576118, “Structure of Designer Antibody-like Peptides Binding to the Human C5a with Potential to Modulate the C5a Receptor Signaling” (J Med Chem, 2024).
pKd: −log10 of the molar value. Calls of active or inactive are those of the source. No cut-off for these calls is given here.

How the values were obtained:
[1] = molecular target: T1, C5a anaphylatoxin chemotactic receptor 1 (Homo sapiens, UniProt P21730); assay: Binding affinity to N-terminal peptide SR3 of C5aR1 (1 to 28 residues)(unknown origin) assessed as dissociation constant by fluorescence based analysis
T1 sequence (P21730 whole entry): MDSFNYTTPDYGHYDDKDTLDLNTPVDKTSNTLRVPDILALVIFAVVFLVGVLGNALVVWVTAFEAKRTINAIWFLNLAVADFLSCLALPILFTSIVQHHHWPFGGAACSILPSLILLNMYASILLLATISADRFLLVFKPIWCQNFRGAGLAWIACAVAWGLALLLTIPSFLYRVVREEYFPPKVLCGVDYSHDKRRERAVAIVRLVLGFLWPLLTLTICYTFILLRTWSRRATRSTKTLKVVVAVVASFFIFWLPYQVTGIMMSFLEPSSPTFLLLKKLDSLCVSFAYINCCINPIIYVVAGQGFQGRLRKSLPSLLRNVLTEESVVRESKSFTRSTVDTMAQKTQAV

Erythrocyte = assay: Hemolytic activity against human erythrocytes at 0.19 to 100 uM incubated for 1 hr by absorbance based assay; type: toxicity, cell-based; conditions: dose 0.19-100 µM
Complement C5 [2] = molecular target: T2, Complement C5 (Homo sapiens, UniProt P01031); assay: Binding affinity to C5a (unknown origin) assessed as change in near-UV CD signature at 50 uM; conditions: filed as modulator
Complement C5 [3] = molecular target: T2, Complement C5; assay: Binding affinity to C5a (unknown origin) at 10 uM by FT-IR analysis; conditions: filed as modulator
Complement C5 [4] = molecular target: T2, Complement C5; assay: Binding affinity to C5a (unknown origin) at 2 mM by 1H NMR analysis; conditions: filed as modulator
Complement C5 [5] = molecular target: T2, Complement C5; assay: Binding affinity to C5a (unknown origin) assessed as dissociation constant incubated for 1 hr by CD analysis
[6] = molecular target: T1, C5a anaphylatoxin chemotactic receptor 1; assay: Binding affinity to N-terminal peptide SR5 of C5aR1 (1 to 28 residues)(unknown origin) assessed as dissociation constant by fluorescence based analysis
[7] = molecular target: T3, C5a anaphylatoxin chemotactic receptor 2 (Homo sapiens, UniProt Q9P296); assay: Binding affinity to N-terminal peptide SR13 of C5aR2 (14 to 32 residues)(unknown origin) assessed as dissociation constant by fluorescence based analysis
[8] = molecular target: T3, C5a anaphylatoxin chemotactic receptor 2; assay: Binding affinity to N-terminal peptide SR12 of C5aR2 (6 to 32 residues)(unknown origin) assessed as dissociation constant by fluorescence based analysis
HEK293 = assay: Cytotoxicity against human HEK293 cells assessed as cellular viability at 0.19 to 100 uM incubated for 18 hrs by MTT assay; type: toxicity, cell-based; conditions: hek293, 18 h, dose 0.19-100 µM
trypsin = trypsin (Homo sapiens, UniProt P07477+P07478+P35030); assay: Induction of trypsin (unknown origin)-mediated proteolysis of compound incubated for 4 hrs by LC-HRMS spectroscopy; type: protein assay; conditions: trypsin (enzyme incubation), read-out: Activity
HeLa = assay: Cytotoxicity against human HeLa cells assessed as cellular viability at 0.19 to 100 uM incubated for 18 hrs by MTT assay; type: toxicity, cell-based; conditions: dose 0.19-100 µM
Complement C5 [9] = molecular target: T2, Complement C5; assay: Binding affinity to C5a (unknown origin) assessed as dissociation constant by fluorescence quenching analysis
Complement C5 [10] = molecular target: T2, Complement C5; assay: Binding affinity to C5a (unknown origin) assessed as tryptophan lifetime by TCSPC analysis (reference value: 2.70 +/- 0.03 nanoseconds); conditions: filed as modulator

T3 sequence (Q9P296 whole entry, the tested form may be a part): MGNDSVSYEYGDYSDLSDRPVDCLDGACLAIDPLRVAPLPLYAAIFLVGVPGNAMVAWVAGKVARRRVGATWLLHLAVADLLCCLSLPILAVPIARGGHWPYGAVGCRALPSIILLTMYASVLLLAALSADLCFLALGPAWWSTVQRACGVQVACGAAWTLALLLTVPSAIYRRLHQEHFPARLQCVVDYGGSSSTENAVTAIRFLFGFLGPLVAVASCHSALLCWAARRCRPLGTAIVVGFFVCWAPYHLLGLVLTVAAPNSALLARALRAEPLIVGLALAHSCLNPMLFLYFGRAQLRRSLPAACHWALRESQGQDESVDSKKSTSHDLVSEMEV

Row | Activity (Complement C5 [2]) | Activity (Complement C5 [3]) | Activity (Complement C5 [4]) | pKd (Complement C5 [5]) | metabolised at 4 h (trypsin) [%] | pKd (Complement C5 [9]) | Time (Complement C5 [10]) [nanoseconds] | SMILES | pKd [1] | Activity (Erythrocyte) | pKd [6] | pKd [7] | pKd [8] | Activity (HEK293) | Activity (HeLa)
1 | Active | Active | Active | 6.15 | 0 | 6.06 | – | CC[C@H](C)[C@H](NC(=O)[C@H](CO)NC(=O)[C@@H](CCC(=O)O)NC(=O)[C@H](CCCNC(=N)N)NC(=O)[C@@H]1CCCN1C(=O)[C@@H](Cc1ccccc1)NC(=O)[C@H](CC(=O)O)NC(=O)[C@@H](CCCNC(=N)N)NC(=O)[C@H](CCCCN)NC(=O)[C@H](Cc1c[nH]c2ccccc12)NC(=O)[C@H](CCSC)NC(=O)[C@@H](CCC(=O)O)NC(=O)[C@H](CC(=O)O)NC(=O)[C@H](CC(C)C)NC(=O)CNC(=O)[C@H]1CCCN1C(=O)[C@H](Cc1ccc(O)cc1)NC(=O)[C@H](CCC(N)=O)NC(=O)[C@@H](CC(=O)O)NC(=O)[C@H](CCCNC(=N)N)NC(=O)[C@@H](NC(=O)[C@H](Cc1cnc[nH]1)NC(=O)[C@@H](CCC(=O)O)NC(=O)[C@H](CC(N)=O)NC(=O)[C@H](CC(C)C)NC(C)=O)C(C)C)C(=O)N[C@@H](CCCNC(=N)N)C(=O)N[C@H](C(=O)N[C@@H](Cc1cnc[nH]1)C(=O)N[C@H](C(=O)N[C@@H](C)C(N)=O)[C@@H](C)O)[C@@H](C)O | 6.90 | Non-Toxic | 6.98 | 6.52 | 6.69 | Non-Toxic | Non-Toxic
2 | Active | Active | Active | 6.03 | – | 6.09 | 1.99 | CC[C@H](C)[C@H](NC(=O)[C@H](CO)NC(=O)[C@H](CCC(=O)O)NC(=O)[C@H](CCCNC(=N)N)NC(=O)[C@@H]1CCCN1C(=O)[C@H](Cc1ccccc1)NC(=O)[C@H](CC(=O)O)NC(=O)[C@H](CCCNC(=N)N)NC(=O)[C@H](CCCCN)NC(=O)[C@H](Cc1c[nH]c2ccccc12)NC(=O)[C@H](CCSC)NC(=O)[C@H](CCC(=O)O)NC(=O)[C@H](CC(=O)O)NC(=O)[C@H](CC(C)C)NC(=O)CNC(=O)[C@@H]1CCCN1C(=O)[C@H](Cc1ccc(O)cc1)NC(=O)[C@H](CCC(N)=O)NC(=O)[C@H](CC(=O)O)NC(=O)[C@H](CCCNC(=N)N)NC(=O)[C@@H](NC(=O)[C@H](Cc1cnc[nH]1)NC(=O)[C@H](CCC(=O)O)NC(=O)[C@H](CC(N)=O)NC(=O)[C@H](CC(C)C)NC(C)=O)C(C)C)C(=O)N[C@@H](CCCNC(=N)N)C(=O)N[C@H](C(=O)N[C@@H](Cc1cnc[nH]1)C(=O)N[C@H](C(=O)N[C@@H](C)C(N)=O)[C@@H](C)O)[C@@H](C)O | 6.90 | Non-Toxic | 6.98 | 6.52 | 6.69 | Non-Toxic | Non-Toxic
